# Test results published in paper PMC6100501, “Evaluation of the Antimicrobial Activity and Cytotoxicity of Different Components of Natural Origin Present in Essential Oils” (Molecules : A Journal of Synthetic Chemistry and Natural …, 2018).
# Read-outs that look alike come from different tables or passages of the source.
# Tests used:
# E. coli S17 strain = experiment: MIC and MBC determination, broth microdilution method; format: cell-based; conditions: Escherichia coli, S17STRAIN, 24 h, 37 °C, average of 12 replicas
# Method: (§1) A Gram-negative model E. coli S17 strain was used, which was kindly donated by Dr. Jose Antonio Ainsa, exerting resistance to streptomycin as it is also widely used for transformation purposes. S. aureus ATCC 25923, well-known as not a resistant strain and used in susceptibility tests, was evaluated as a Gram-positive model. Both strains were initially grown overnight in TSB at 37 °C under shaking (150 rpm) obtaining, in the stationary growth phase, 10^8–10^9 CFU/mL. TSA was used for seeding bacteria in an incubator at 37 °C (Memmert, Schwabach, Germany) in order to calculate the bacteria growth (CFU/mL) after treatment with the EO-contained molecules.
# (§2) Inhibitory and bactericidal concentrations of active EO molecules were tested in two bacteria cultures, E. coli and S. aureus, following the broth microdilution method. Liquid growth medium containing an inoculum of 10^5 CFU/mL and serial concentrations of the EO compounds (0.1–4 mg/mL) were used. EO compounds were solubilized in culture medium by adding Tween® 80 (1.5–2% v/v) prior to their serial dilution. Once bacteria suspension was in stationary growth (10^8–10^9 CFU/mL), it was further diluted to ~10^5 CFU/mL and added to different concentrations ([…]) of the antimicrobial agents. Then, samples were incubated for 24 h at 37 °C under shaking (150 rpm). After incubation, bacterial suspensions were diluted in PBS and spot-plated on TSA plates to count colonies after incubation at 37 °C for 24 h. Positive control (untreated bacteria) and negative control (chlorhexidine treated bacteria) samples were also tested.
# S. aureus ATCC 25923 = experiment: as above; format: cell-based; conditions: Staphylococcus aureus
# Method: as §1, §2
# S. aureus biofilm [1] = experiment: Biofilm disruption: elimination of preformed biofilm (CFU/mL count); format: cell-based, Staphylococcus aureus; conditions: 0.5 mg/mL, 24 h, vs untreated biofilm
# Method: S. aureus was grown overnight in TSB until stationary growth phase was reached. At this point, bacteria were adjusted to 10^7 CFU/mL and added to a MW96 microplate and incubated at 37 °C for 16 h without shaking. After incubation, culture medium was discarded and biofilms were washed twice with PBS. In order to determine biofilm formation, Calcofluor White Stain (50 µL) was added to each well and incubated 1 min in the dark at room temperature. After incubation, the stain was removed and biofilms were washed twice with PBS. Samples were air-dried in the dark to be further visualized in an inverted fluorescence microscope (Olympus IX81). The effects of EO molecules (0.25–1 mg/mL) to prevent the formation of biofilm and to disrupt an already formed S. aureus biofilm were studied. EO compounds were added to preformed biofilms and samples were incubated for 24 h at 37 °C without shaking. After incubation, biofilms were disrupted by sonication (15 min, 200 W; Ultrasons, JP Selecta, Barcelona, Spain). Samples were then diluted and seeded onto agar plates to count the viable colonies grown after 24 h of incubation at 37 °C.
# S. aureus biofilm [2] = experiment: Inhibition of biofilm formation (CFU/mL count); format: cell-based, Staphylococcus aureus; conditions: added to bacteria suspension, 16 h; concentration not printed in the sentence (Figure 5B)
# Method: To study the effects of the compounds present in the EOs on biofilm formation, those were added to bacterial suspensions (10^7 CFU/mL) in a MW96 microplate and incubated for 16 h at 37 °C without shaking. After incubation, planktonic cells were removed by washing them twice with PBS. Biofilm samples were then sonicated as described above and serially diluted to be further plated on agar. Viable bacteria (CFU/mL) were counted after 24 h of incubation at 37 °C.
# human dermal fibroblasts = experiment: Cytotoxicity, Blue Cell Viability assay; conditions: 24 h
# Method: (§3) Human dermal fibroblasts, human epidermal keratinocytes (HaCaT), and THP1 human monocytes were used to evaluate the cytotoxic effects of EO-based compounds.
# (§4) Fibroblasts and HaCaT were routinely grown in high-glucose DMEM supplemented with 10% FBS and antibiotic-antimycotic. Monocytes were cultured in RPMI 1640 supplemented with 10% FBS, 1% HEPES, 1% nonessential amino acids, 0.1% 2-mercaptoethanol 50 mM, 1% sodium pyruvate 100 mM, and antibiotic-antimycotic. Macrophages were obtained by the in vitro differentiation of monocytes by adding 1 µM PMA to the cell culture. All cell types were grown in a humidified atmosphere at 37 °C and 5% CO2.
# (§5) The cytotoxicity was determined by measuring cell metabolism through the Blue Cell Viability assay. Cells were seeded on MW96 microplates and incubated with the tested molecules (0.004–0.125 mg/mL) for 24 h. Control samples (not treated and chlorhexidine treated) were also analyzed. Then, the reagent was added (10%) and cells were incubated for 4 h at 37 °C. The reduction of the dye by metabolically active cells was monitored in a microplate reader (Multimode Synergy HT Microplate Reader; Biotek, Winooski, WI, USA) at 535/590 nm ex/em. Cell viability was determined by interpolation of the emission data obtained from the treated samples and the control samples (not treated cells, 100% viability).
# [3] = tested on: human epidermal keratinocytes (HaCaT); experiment: Cytotoxicity, Blue Cell Viability assay; conditions: 24 h; for subcytotoxic dose: keratinocytes
# Method: as §3, §4, §5
# [4] = tested on: macrophages (THP1 human monocytes differentiated with PMA); experiment: Cytotoxicity, Blue Cell Viability assay; conditions: 24 h
# Method: as §3, §4, §5
# E. coli and S. aureus = experiment: Bactericidal mechanism by SEM, flow cytometry and confocal microscopy; format: cell-based, Escherichia coli, Staphylococcus aureus; conditions: treated at MIC and MBC for 24 h
# Method: Bacteria morphology before and after treatment with EO molecules was analyzed by SEM as we previously reported. Briefly, logarithmic growth phase E. coli and S. aureus bacteria cultures (~10^5 CFU/mL) were treated with the selected EO compounds at MIC and MBC values and incubated overnight at 37 °C. Following incubation, samples were spin-dried at 600 g and washed twice in PBS (0.1 M). Bacteria were fixed in 2.5% glutaraldehyde for 90 min and subsequently filtered and dehydrated in ethanol solutions series (30, 50, 70, 80, 90, and 100%; twice for 15 min). Finally, samples were air-dried at room temperature and covered with Pt. SEM micrographs were acquired in a SEM Inspect F50 equipment (FEI Co., LMA-INA, Zaragoza, Spain).
# In order to study the bactericidal mechanism of the different molecules present in EOs, E. coli and S. aureus bacteria samples (10^7 CFU/mL) were centrifuged at 4400× g for 10 min and resuspended in the different compound solutions at MIC and MBC concentrations following the protocols previously described. Control groups (not treated and chlorhexidine treated bacteria) were also analyzed. All samples were incubated overnight at 37 °C. After propidium iodide (25 µg/mL; Sigma-Aldrich, Munich, Germany) addition, samples were analyzed by flow cytometry in Gallios equipment (Beckman Coulter Company, Cell Separation and Cytometry Unit, CIBA, IIS Aragon, Zaragoza, Spain).
# The Live/Dead®BacLight™ bacterial viability kit (Molecular Probes, Fisher Scientific, Hampton, USA) was used to detect bacteria membrane damage. The methodology is based on the double-staining by SYTO9 and propidium iodide as indicated by the manufacturer. […] Samples were then mounted on slides and visualized by confocal microscopy (Leica TCS SP2 Laser Scanning Confocal Microscope, Microscopy Unit, CIBA, IIS Aragon, Zaragoza, Spain). Control samples were also tested as described above.
# S. aureus = conditions: cited from earlier work
# S. aureus ATCC 43300 = conditions: cited from earlier work
# S. aureus ATCC 6538 = conditions: cited from earlier work
# intestinal cells = conditions: cited from earlier work
# fibroblasts = conditions: cited from earlier work
# tumor cell lines = conditions: cited from earlier work
# [5] = Cytotoxicity, Blue Cell Viability assay; conditions: human, human dermal fibroblasts
# Method: as §3, §4, §5
# [6] = tested on: human dermal fibroblasts, keratinocytes, and macrophages; conditions: 24 h
# Method: as §3, §4, §5
# [7] = ATCC25923, S. aureus, 24 h, 37 °C, average of 12 replicas, read-out: MBC
# [8] = ATCC25923, S. aureus, 24 h, 37 °C, average of 12 replicas, read-out: MIC
Compound,MBC (E. coli S17 strain) [µg/mL],MIC (E. coli S17 strain) [µg/mL],subcytotoxic dose [3],bactericidal mechanism (E. coli and S. aureus),MBC (S. aureus ATCC 25923; [7]) [µg/mL],MIC (S. aureus ATCC 25923; [8]) [µg/mL],further results
Cc1ccc(C(C)C)cc1O [Carvacrol],400,200,0.030 mg/mL,membrane disruption,,,"MBC (S. aureus ATCC 25923; ATCC25923, 24 h): 300 µg/mL; MIC (S. aureus ATCC 25923; ATCC25923, 24 h): 200 µg/mL; reduction in bacteria growth (CFU/mL) of preformed biofilm (S. aureus biofilm [1]): 3 logs; decrease in posterior bacterial growth, compound added before biofilm formation (S. aureus biofilm [2]): ~6 logs; concentration toxic to fibroblasts (affects viability) (human dermal fibroblasts; viability below 70% (ISO 10993-5)): ≥ 0.090 mg/mL; subcytotoxic concentration ([4]; macrophages): 0.090 mg/mL; MIC (S. aureus; lower end of literature range): approximately 0.15 mg/mL; MIC (S. aureus; upper end of literature range): 15 mg/mL; MIC (S. aureus ATCC 43300): 0.31 mg/mL; MIC (S. aureus ATCC 6538; converted from 0.015% v/v): approximately 0.147 mg/mL; MIC (S. aureus ATCC 6538; converted from 2.5 µL/mL): approximately 2.45 mg/mL; MIC (S. aureus ATCC 6538; ref 18): 0.015 % v/v; MIC (S. aureus ATCC 6538; ref 21): 2.5 µL/mL; MIC (S. aureus ATCC 6538; ref 22): 0.4 mg/mL; subcytotoxic concentration (intestinal cells; intestinal cells): ~ 500 µM; concentration giving 50% viability (fibroblasts; fibroblasts): ~ 5 µg/mL"
O=C/C=C/c1ccccc1 [Cinnamaldehyde],300,200,,membrane disruption,500,400,"reduction in bacteria growth (CFU/mL) of preformed biofilm (S. aureus biofilm [1]): around 2 logs; decrease in posterior bacterial growth, compound added before biofilm formation (S. aureus biofilm [2]): 4 logs; concentration toxic to fibroblasts (affects viability) (human dermal fibroblasts; human): 0.015 mg/mL; dose that reduces viability below 70% ([3]; human): 0.030 mg/mL; dose that reduces viability below 70% ([4]; human): 0.030 mg/mL; subcytotoxic concentration (tumor cell lines): ~ 10 µg/mL"
C=CCc1ccc(O)c(OC)c1 [Eugenol],500,400,,,1500,1300,
O=C(/C=C/c1ccc(O)c(O)c1)O[C@H](Cc1ccc(O)c(O)c1)C(=O)O [Rosmarinic acid],> 4000,> 4000,,,4000,2500,
CC(C)=CCC/C(C)=C/CC/C(C)=C/CC/C=C(\C)CC/C=C(\C)CCC=C(C)C [Squalene],> 4000,> 4000,,,> 4000,> 4000,
Cc1ccc(C(C)C)c(O)c1 [Thymol],300,200,0.060 mg/mL,membrane disruption,300,200,concentration toxic to fibroblasts (affects viability) (human dermal fibroblasts; human): ≥ 0.090 mg/mL; subcytotoxic concentration ([4]; human): 0.060 mg/mL; subcytotoxic concentration (intestinal cells): ~ 500 µM; concentration giving 50% viability (fibroblasts): ~ 5 µg/mL
"[H]/N=C(\N/C(=N/[H])NCCCCCCNC(=N)NC(=N)Nc1ccc(Cl)cc1)Nc1ccc(Cl)cc1 [chlorhexidine, reference compound]",,,lower than 0.004 mg/mL,,,,"viability at 24 h, 0.004 mg/mL [5]: > 70%; subcytotoxic concentration ([4]; human): lower than 0.004 mg/mL; subcytotoxic concentration [6]: 0.004 mg/mL"
C=C1CC/C=C(\C)CC[C@@H]2[C@@H]1CC2(C)C [β-caryophyllene],> 4000,> 4000,,,> 4000,> 4000,
